Laboratory results as given in patent publication US20210332320A1, “ANTIMICROBIC SUSCEPTIBILITY TESTING USING MACHINE LEARNING” (Beckman Coulter, Inc., priority 2018, published 2021).

What was measured:
Assay type in all cases: cell-based
[1] = system: P. fluorescens; test: Actual MIC (reference read after full growth period)
Protocol: In AST testing, a plurality of test wells are filled with inoculum and increasing concentrations of a number of different antimicrobial agents, for example antibiotics. The different antimicrobial agents may be diluted in a growth medium or liquid medium to concentrations that include those of clinical interest. After incubation, the turbidity will be increased or unchanged in test wells where growth has not been inhibited by the antimicrobics in those test wells. The MIC of each antimicrobial agent is measured by lack of growth with respect to each concentration of antimicrobial agent. It follows that the lowest concentration of antimicrobial agent displaying a lack of growth is the MIC. As set forth above, neural networks can be used to model growth patterns of a bacterial isolate over time at various drug concentrations. As long as the bacteria grows in the well with no drug, then a neural network can be created to use the count and area of the growth well and at the various drug concentrations to make an early prediction of the MIC. […]

[2] = system: P. fluorescens; test: MIC prediction by neural network from digital microscopy of AST test wells
Excerpt: FIG. 8 provides an illustration of how data that can be used in an optimized AST method 101 can be captured from a test well. Test well 20 is embodied by a “384” style test well, having a clear viewing bottom. The volume of inoculum in test well 20 may be set to 20 microliters to reduce the amount of materials such as bulk diluents required by AST method 101 and/or minimize light artifacts and provide sampling of a consistent number of microbes from the 1:250 dilution of the 0.5 MacFarland inoculum. Decreasing the volume of inoculum in test well 20 generally increases the light artifacts. In some instances, capturing a single vertical plane 103 at 20× objective whereby AST camera 35 is set at 0.33 microns/pixel may be sufficient for sampling the inoculum and ensuring that each individual microbe is recognizable. However, these parameters are configurable and may change as desired by the user or the underlying needs of the system. Capturing three focal sites spaced about 5 microns apart within single vertical plane 103 may also provide a sufficient number of microbes in the sample to count for use in optimized AST method 101. These three focal sites are labeled site 105, site 107, and site 109 in FIG. 8. In an exemplary version of optimized AST method 101, each focal site is approximately 700×700 microns within single vertical plane 103, rather than capturing three sites in three different vertical planes. AST camera 35, optics system 9, and computer 49 are configured to capture an image of each focal site in consecutive time periods, manipulate each of these images, and thereafter use the data derived from these manipulated images to make a MIC determination. In some embodiments, to use a neural network such as illustrated in FIG. 24 to make a MIC prediction, a test well containing some concentration of an antimicrobial could be inoculated with a microorganism. Data could then be gathered by taking measurements in a manner similar to that described above in the context of the decision tree and neural network classifiers of FIGS. 20-23B and 25. These measurements, along with the identity and concentration of the antimicrobial in the test well could then be provided as inputs to the neural network's input nodes. The values provided on the network's output nodes could then be treated as indications of the likelihood that the concentrations corresponding to the output nodes were the MIC for the microorganism added to the test well. For example, when using a network which had been trained to provide a likelihood that a first concentration is the MIC on a first output node, a likelihood that a second concentration is the MIC on a second output node, and a likelihood that a third concentration is the MIC on a third output node, the concentration corresponding to the output node with the highest value (which might not be the same as the concentration of the antimicrobial in the test well from which the data was gathered) could be treated as the MIC. In some embodiments, rather than using values of the output nodes of a network such as shown in FIG. 24 as directly indicating the MIC, values from such output nodes may be used as inputs to another function that would provide a (potentially more reliable) MIC value. For example, in some embodiments, separate sets of measurements could be gathered from each of a plurality of test wells having different concentrations of the same antimicrobial, and those sets of measurements could each be provided as input to a neural network such as illustrated in FIG. 24. Each of those neural networks would then provide a prediction of the most likely MIC, and those predictions could be provided as input to another function (e.g., a statistical function, such as a mode or median identification function) that would provide a prediction that would be treated as the true MIC for the sample.

[3] = system: E. coli bacteria; test: Digital microscopy of E. coli bacteria exposed to antibiotic dilution (elongation); settings: FIG. 17 versus unexposed FIG. 18
Excerpt: Data extraction step 117 may be configured to derive information regarding the ratio between the total count of microbes and the total area occupied by all of the microbes in the image. This information may be useful in determining whether the microbes are undergoing elongation over time. Elongation is a precursor to death and indicates the concentration of the antimicrobic dilution is negatively affecting the microbes. More specifically, elongation may occur when microbes such as bacteria encounter an effective amount of antibiotic drugs. For example, FIGS. 17 and 18 depict microbes embodied by E. coli bacteria. FIG. 17 depicts the E. coli after being exposed to a dilution of the antibiotic ampicillin, while FIG. 18 depicts the E. coli free from any ampicillin exposure. […] This elongation is a precursor to the death of the bacteria and illustrates that the concentration of ampicillin is sufficient to neutralize the bacteria. FIG. 18 illustrates normal growth. It follows that the ratio between the total area occupied by all of the bacteria and the bacteria count will increase over time to represent each bacterium elongating. For example, if a particular image sample includes 100 bacteria and each bacterium measures approximately 4 pixels each, the area occupied by the 100 bacteria within the image is 400 pixels. In this image sample, the ratio of bacteria area to bacteria count is 4.0. […]

Row | actual MIC [1] | Structure (SMILES) | final predicted MIC ([2]; median of the predictions of the 11 drug concentration wells) | Predicted MIC ([2]; prediction from test well with dilution 0.06 μg/ml) | Predicted MIC ([2]; prediction from test well with dilution 0.12 μg/ml) | Predicted MIC ([2]; prediction from test well with dilution 0.25 μg/ml) | Predicted MIC ([2]; prediction from test well with dilution 0.5 μg/ml) | Predicted MIC ([2]; prediction from test well with dilution 1 μg/ml) | Predicted MIC ([2]; prediction from test well with dilution 2 μg/ml) | Predicted MIC ([2]; prediction from test well with dilution 4 μg/ml) | Predicted MIC ([2]; prediction from test well with dilution 8 μg/ml) | Predicted MIC ([2]; prediction from test well with dilution 16 μg/ml) | Predicted MIC ([2]; prediction from test well with dilution 32 μg/ml) | Predicted MIC ([2]; prediction from test well with dilution 64 μg/ml) | growth morphology after exposure to a dilution of the antibiotic [3]
1 | example was 2. μg/ml | CC(C)(O/N=C(\C(=O)N[C@@H]1C(=O)N2C(C(=O)[O-])=C(C[n+]3ccccc3)CS[C@H]12)c1csc(N)n1)C(=O)O [Caz, Ceftazidime] | which in this case is 2. μg/ml | 2 µg/mL | 2 µg/mL | 2 µg/mL | 2 µg/mL | 2 µg/mL | 2 µg/mL | 32 µg/mL | 2 µg/mL | 2 µg/mL | 2 µg/mL | 2 µg/mL | –
2 | – | CC1(C)S[C@@H]2[C@H](NC(=O)[C@H](N)c3ccccc3)C(=O)N2[C@H]1C(=O)O [ampicillin] | – | – | – | – | – | – | – | – | – | – | – | – | abnormal growth in the form of elongation
